Results from patent publication US9255093B2, “Polycyclic HERG activators” (NOVARTIS AG, priority 2014, dated 2016).
Marks after values point to notes of the source that are not given here.

Each compound was assayed against T1, hERG (human ether-a-go-go-related gene) potassium channel (Homo sapiens, UniProt Q12809) (assay: QPatch automated patch-clamp hERG activator 4-concentration EC50 assay). Settings: increase of hERG tail current amplitude at 7 second (TL7); 3.3 uM (footnote *); hERG stably expressed in CHO cells.
T1 sequence (Q12809 whole entry): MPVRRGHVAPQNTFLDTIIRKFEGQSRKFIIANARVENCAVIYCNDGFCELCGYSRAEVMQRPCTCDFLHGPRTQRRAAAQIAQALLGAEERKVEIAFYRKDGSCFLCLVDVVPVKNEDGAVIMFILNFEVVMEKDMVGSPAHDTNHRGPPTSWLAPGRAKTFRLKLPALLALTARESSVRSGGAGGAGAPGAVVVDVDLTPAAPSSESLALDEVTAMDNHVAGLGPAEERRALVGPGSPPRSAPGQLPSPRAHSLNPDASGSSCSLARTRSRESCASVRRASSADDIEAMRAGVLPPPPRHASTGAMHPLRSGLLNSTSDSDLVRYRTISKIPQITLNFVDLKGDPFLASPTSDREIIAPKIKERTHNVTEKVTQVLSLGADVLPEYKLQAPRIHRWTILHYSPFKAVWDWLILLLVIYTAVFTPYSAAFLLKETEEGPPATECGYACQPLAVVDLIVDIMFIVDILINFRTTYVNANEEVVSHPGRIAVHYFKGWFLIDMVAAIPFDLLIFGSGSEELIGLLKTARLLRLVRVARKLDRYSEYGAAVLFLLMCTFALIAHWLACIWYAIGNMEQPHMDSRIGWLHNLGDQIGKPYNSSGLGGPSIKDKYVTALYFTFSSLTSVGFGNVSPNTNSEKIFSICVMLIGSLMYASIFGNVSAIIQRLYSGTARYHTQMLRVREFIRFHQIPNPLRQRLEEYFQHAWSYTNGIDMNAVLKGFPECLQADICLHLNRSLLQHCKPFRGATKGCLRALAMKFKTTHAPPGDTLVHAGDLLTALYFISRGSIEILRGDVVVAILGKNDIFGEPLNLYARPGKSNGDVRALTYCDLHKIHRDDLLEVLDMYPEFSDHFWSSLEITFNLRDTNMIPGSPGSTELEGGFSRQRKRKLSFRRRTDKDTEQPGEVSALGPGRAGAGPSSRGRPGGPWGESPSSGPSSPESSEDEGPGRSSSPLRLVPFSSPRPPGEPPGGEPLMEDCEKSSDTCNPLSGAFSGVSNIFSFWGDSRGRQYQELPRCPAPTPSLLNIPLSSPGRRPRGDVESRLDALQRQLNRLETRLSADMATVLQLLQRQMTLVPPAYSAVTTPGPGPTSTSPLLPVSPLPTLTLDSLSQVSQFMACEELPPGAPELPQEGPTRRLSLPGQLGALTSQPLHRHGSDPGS
Description: A patch-clamp assay on the QPatch© automated patch clamp system was employed to assesses whether compounds functionally enhance the cardiac delayed rectifier hERG (human ether-a-go-go-related gene) potassium channel. The assay measures electric the current passing through hERG channels that are heterologously expressed in a stable Chinese hamster ovary (CHO) cell line. Channels are opened by a hERG-specific voltage protocol and the compound effect is directly characterized by the activation of the hERG current. EC50 values are obtained from fitting 4-concentration dose response curves (1.1, 3.3, 10 & 30 uM) in triplicates at 4 different sections of the voltage protocol (steady state current amplitude at +10 mV, at +30 mV, peak tail current amplitude and tail current amplitude at 7 second).

`Fc1cc2cc(-c3nnn[nH]3)oc2cc1CNc1ccc(C(F)(F)F)c(Br)c1` [Example 177] was tested, and the “% change@TL7 (*@3.3 uM)” value was 215* %.
`FC(F)(F)Oc1ccc(NCc2ccc3c(-c4nn[nH]n4)coc3c2)cc1Br` [Example 233] was tested, and the “% change@TL7 (*@3.3 uM)” value was 202* %.

Same assay, conditions: increase of hERG tail current amplitude at 7 second (TL7); 10 uM; hERG stably expressed in CHO cells

In order of rising “% change@TL7@10 uM” value:
1. FC1(F)Oc2ccc(NCc3ccc4cc(-c5nn[nH]n5)oc4c3)cc2C(F)(F)O1 [Example 219]  71%
2. Fc1ccc(NCc2cc3oc(-c4nnn[nH]4)cc3cc2Cl)cc1CC(F)(F)F [Example 221]  81%
3. CC(C)COc1ccc(NCc2ccc3cc(-c4nn[nH]n4)oc3c2)cc1Br [Example 216]  88%
4. Cc1cc2cc(NCc3cc4oc(-c5nnn[nH]5)cc4cc3Cl)cc(Cl)c2o1 [Example 188]  108%
5. FC(F)(F)Oc1cc(Cl)cc(NCc2cc3oc(-c4nnn[nH]4)cc3cc2Cl)c1 [Example 212]  116%
6. CCOc1ccc(NCc2cc3oc(-c4nnn[nH]4)cc3cc2Cl)cc1Cl [Example 217]  116%
7. Fc1cc2cc(-c3nnn[nH]3)oc2cc1CNc1ccc(F)c(C(F)(F)F)c1 [Example 176]  120%
8. Fc1ccc(NCc2cc3oc(-c4nnn[nH]4)cc3cc2F)cc1Cl [Example 215]  132%
9. N#CCOc1ccc(NCc2ccc3cc(-c4nnn[nH]4)oc3c2Cl)cc1C(F)(F)F [Example 210]  134%
10. Fc1cc2cc(-c3nnn[nH]3)oc2cc1CNc1ccc(C(F)(F)F)c(F)c1 [Example 203]  136%
11. Cc1nsc2ccc(NCc3ccc4cc(-c5nn[nH]n5)oc4c3)cc12 [Example 209]  137%
12. Fc1cc(NCc2cc3oc(-c4nnn[nH]4)cc3cc2F)ccc1Cl [Example 214]  138%
13. O=C(O)c1cc2cc(F)c(CNc3ccc(OCC(F)(F)F)c(Cl)c3)cc2o1 [Example 225]  138%
14. O=C(O)c1cc2cc(F)c(CNc3ccc(SC(F)(F)F)c(Cl)c3)cc2o1 [Example 228]  140%
15. Cc1cc(NCc2cc3oc(-c4nnn[nH]4)cc3cc2Cl)cc(C(F)(F)F)c1 [Example 213]  144%
16. CCCc1c(C)cc(NCc2cc3oc(-c4nnn[nH]4)cc3cc2Cl)cc1Cl [Example 220]  148%
17. CCOc1ccc(NCc2ccc3cc(-c4nnn[nH]4)oc3c2Cl)cc1C(F)(F)F [Example 206]  160%
18. CCCc1ccc(NCc2cc3oc(-c4nnn[nH]4)cc3cc2F)cc1F [Example 190]  167%
19. Fc1cc2cc(-c3nnn[nH]3)oc2cc1CNc1ccc(C(F)(F)F)c(Cl)c1 [Example 196]  169%
20. N#Cc1cc(NCc2ccc3cc(-c4nnn[nH]4)oc3c2Cl)ccc1OC(F)F [Example 202]  174%
21. O=C(O)c1cc2cc(Cl)c(CNc3ccc(OC(F)F)c(C(F)(F)F)c3)cc2o1 [Example 223]  176%
22. O=C(O)c1cc2cc(F)c(CNc3ccc(OC(F)(F)F)c(Cl)c3)cc2o1 [Example 226]  182%
23. FC(F)(F)c1ccc(NCc2cc3oc(-c4nnn[nH]4)cc3cc2Cl)cc1Cl [Example 198]  187%
24. O=C(O)c1cc2cc(F)c(CNc3ccc(OC(F)(F)F)c(Br)c3)cc2o1 [Example 227]  188%
25. Cc1cc2cc(NCc3ccc4cc(-c5nn[nH]n5)oc4c3)cc(Cl)c2o1 [Example 194]  205%
26. Fc1cc2cc(-c3nnn[nH]3)oc2cc1CNc1ccc(OCC(F)(F)F)c(Cl)c1 [Example 205]  222%
27. O=C(O)c1cc2cc(Cl)c(CNc3ccc(OCC(F)(F)F)c(C(F)(F)F)c3)cc2o1 [Example 224]  222%
28. Fc1c(Cl)cc(NCc2cc3oc(-c4nnn[nH]4)cc3cc2Cl)cc1C(F)(F)F [Example 201]  225%
29. FC(F)(F)COc1ccc(NCc2ccc3cc(-c4nnn[nH]4)oc3c2Cl)cc1C(F)(F)F [Example 187]  230%
30. Fc1cc2cc(-c3nnn[nH]3)oc2cc1CNc1ccc(Cl)c(Br)c1 [Example 180]  231%
31. O=C(O)c1cc2cc(F)c(CNc3ccc(OCC(F)(F)F)c(C(F)(F)F)c3)cc2o1 [Example 231]  239%
32. O=C(O)c1cc2cc(F)c(CNc3ccc(OC(F)F)c(C(F)(F)F)c3)cc2o1 [Example 230]  244%
33. O=C(O)c1cc2cc(F)c(CNc3cc(Cl)c(Cl)c(Cl)c3)cc2o1 [Example 232]  247%
34. CCOc1ccc(NCc2cc3oc(-c4nnn[nH]4)cc3cc2F)cc1Cl [Example 211]  248%
35. Clc1ccc(NCc2ccc3cc(-c4nn[nH]n4)oc3c2)cc1Br [Example 182]  249%
36. Cc1cc(NCc2cc3oc(-c4nnn[nH]4)cc3cc2F)cc(C(F)(F)F)c1 [Example 195]  249%
37. CCOc1ccc(NCc2cc3oc(-c4nnn[nH]4)cc3cc2Br)cc1C(F)(F)F [Example 178]  262%
38. COc1ccc(NCc2ccc3cc(-c4nn[nH]n4)oc3c2)cc1Br [Example 174]  273%
39. Fc1cc2cc(-c3nnn[nH]3)oc2cc1CNc1ccc(Cl)c(Cl)c1 [Example 208]  285%
40. CC(C)c1ccc(NCc2cc3oc(-c4nnn[nH]4)cc3cc2Cl)cc1C(F)(F)F [Example 207]  297%
41. CCc1ccc(NCc2cc3oc(-c4nnn[nH]4)cc3cc2F)cc1Br [Example 181]  322%
42. FC(F)(F)c1cc(NCc2cc3oc(-c4nnn[nH]4)cc3cc2Cl)cc(C(F)(F)F)c1Br [Example 189]  350%
43. O=C(O)c1cc2cc(F)c(CNc3cc(C(F)(F)F)c(Br)c(C(F)(F)F)c3)cc2o1 [Example 229]  424%

These compounds were tested against T1, hERG (human ether-a-go-go-related gene) potassium channel (assay: not given). Settings: not given.

For `O=c1cc(C(F)(F)F)c2ccc(NCc3ccc4cc(-c5nn[nH]n5)oc4c3)cc2o1` [Example 222], the “% change@TL7@10 uM” value was 41%.
